Experimental data published in ChEMBL document CHEMBL1201862, “PubChem BioAssay data set” (2004).
Activity calls are given as the source filed them.

Key:
Cytochrome P450 2D6 [1] = molecular target: T1, Cytochrome P450 2D6 (Homo sapiens, UniProt P10635);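 also: CYP2D6 member of a cytochrome P450 panel assay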
HEK293 [2] = test: cells; details: Homo sapiens
HEK293 [3] = test: cells; details: Homo sapiens; remark: listed apart in the source
Cytochrome P450 2D6 [4] = molecular target: T1, Cytochrome P450 2D6; remark: listed apart in the source
[5] = molecular target: T2, Kappa-type opioid receptor (Homo sapiens, UniProt P41145); assay type: functional
Mu-type opioid receptor = Mu-type opioid receptor (Homo sapiens, UniProt P35372); test: HTS Image-Based Screen for Agonists of the MOR Receptor. [Related pubchem assays (depositor defined):AID1777, AID1785, AID1786, AID2133]; assay type: functional;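 also: imaging of beta-arrestin GFP recruitment into spots after receptor activation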
Beta-galactosidase = Beta-galactosidase (Escherichia coli, UniProt Q8VNN2); assay type: functional
[6] = molecular target: T3, Delta-type opioid receptor (Homo sapiens, UniProt P41143); test: HTS Image-Based Screen for Antagonists of the DOR Receptor. [Related pubchem assays (depositor defined):AID1777, AID1785, AID1786, AID2133]; assay type: functional
[7] = molecular target: T2, Kappa-type opioid receptor; assay type: functional; remark: listed apart in the source
[8] = molecular target: T3, Delta-type opioid receptor; test: HTS Image-Based Screen for Agonists of the DOR Receptor. [Related pubchem assays (depositor defined):AID1777, AID1786, AID2133]; assay type: functional
CAAX prenyl protease 2 [9] = molecular target: CAAX prenyl protease 2 (Homo sapiens, UniProt Q9Y256); test: inhibition of Ras-converting CAAX protease Rce1 – biochemical, yeast membranes, quenched-peptide fluorescence, cherry-pick, dose response (AID 588849)
CAAX prenyl protease 2 [10] = molecular target: T4, CAAX prenyl protease 2 (Saccharomyces cerevisiae S288c, UniProt Q03530); assay type: biochemical
T4 sequence (Q03530 whole entry): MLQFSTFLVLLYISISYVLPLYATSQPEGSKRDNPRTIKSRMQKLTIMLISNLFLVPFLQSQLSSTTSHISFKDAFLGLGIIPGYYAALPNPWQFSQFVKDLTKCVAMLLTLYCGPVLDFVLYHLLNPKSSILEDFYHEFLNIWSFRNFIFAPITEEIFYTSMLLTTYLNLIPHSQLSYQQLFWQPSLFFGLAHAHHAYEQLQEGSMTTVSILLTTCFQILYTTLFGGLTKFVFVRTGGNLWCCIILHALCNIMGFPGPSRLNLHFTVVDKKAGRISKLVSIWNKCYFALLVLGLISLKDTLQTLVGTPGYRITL

Trypsin = Trypsin (Sus scrofa, UniProt P00761); test: trypsin protease activity blockade – biochemical, quenched peptide fluorescence, cherry-pick, selectivity assay for Rce1 protease inhibitor project, dose response (AID 488789)
[11] = molecular target: T5, Short transient receptor potential channel 4 (Mus musculus, UniProt Q9QUQ5); test: calcium entry via TRPC4 opening agents – cell-based, HEK293 TRPC4/mu-opioid, Fluo-4 calcium, dose response (AID 434937); assay type: functional
T5 sequence (Q9QUQ5 whole entry): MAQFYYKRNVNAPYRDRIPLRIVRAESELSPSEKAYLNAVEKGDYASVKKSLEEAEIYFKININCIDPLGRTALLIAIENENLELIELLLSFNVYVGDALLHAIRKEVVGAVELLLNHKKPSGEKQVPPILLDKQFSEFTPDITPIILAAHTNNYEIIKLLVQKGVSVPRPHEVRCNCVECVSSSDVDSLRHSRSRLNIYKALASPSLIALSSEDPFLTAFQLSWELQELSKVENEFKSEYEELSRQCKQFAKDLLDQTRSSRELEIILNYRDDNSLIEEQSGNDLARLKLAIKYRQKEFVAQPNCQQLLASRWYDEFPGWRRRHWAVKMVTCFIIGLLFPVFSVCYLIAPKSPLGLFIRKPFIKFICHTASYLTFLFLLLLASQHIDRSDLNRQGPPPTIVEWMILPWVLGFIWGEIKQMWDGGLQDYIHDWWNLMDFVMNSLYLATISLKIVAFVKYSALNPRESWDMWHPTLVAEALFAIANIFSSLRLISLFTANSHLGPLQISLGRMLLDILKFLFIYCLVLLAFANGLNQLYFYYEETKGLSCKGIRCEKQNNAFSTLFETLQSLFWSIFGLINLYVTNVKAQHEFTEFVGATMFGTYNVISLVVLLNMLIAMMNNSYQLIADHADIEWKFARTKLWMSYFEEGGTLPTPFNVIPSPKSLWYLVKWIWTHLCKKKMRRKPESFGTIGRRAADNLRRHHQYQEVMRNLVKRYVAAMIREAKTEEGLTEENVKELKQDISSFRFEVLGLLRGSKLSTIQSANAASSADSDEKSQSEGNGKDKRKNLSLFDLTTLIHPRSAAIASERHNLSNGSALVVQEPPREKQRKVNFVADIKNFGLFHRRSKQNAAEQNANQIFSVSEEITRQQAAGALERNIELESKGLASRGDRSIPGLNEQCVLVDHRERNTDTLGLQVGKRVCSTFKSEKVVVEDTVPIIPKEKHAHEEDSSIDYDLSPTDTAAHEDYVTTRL

[12] = NIH-3T3 fibroblast cytotoxicity, dose response, cytotoxicity control, cell-based, fluorescence, Alamar Blue, secondary assay (AID 2327); assay type: functional;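 also: NIH-3T3 mouse fibroblasts cultured with fluconazole at 8 µg/mL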
[13] = fluconazole-exposed Candida albicans growth modulators – fluorescence, retest, confirmation (AID 2467); assay type: functional, cell-based
[14] = molecular target: T5, Short transient receptor potential channel 4; test: block of DAMGO-driven TRPC4 calcium entry – cell-based, HEK293 TRPC4/mu-opioid, Fluo-4 calcium, dose response (AID 434942); assay type: functional;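 also: potency of inhibitors blocking the TRPC4 calcium response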

T3 sequence (P41143 whole entry): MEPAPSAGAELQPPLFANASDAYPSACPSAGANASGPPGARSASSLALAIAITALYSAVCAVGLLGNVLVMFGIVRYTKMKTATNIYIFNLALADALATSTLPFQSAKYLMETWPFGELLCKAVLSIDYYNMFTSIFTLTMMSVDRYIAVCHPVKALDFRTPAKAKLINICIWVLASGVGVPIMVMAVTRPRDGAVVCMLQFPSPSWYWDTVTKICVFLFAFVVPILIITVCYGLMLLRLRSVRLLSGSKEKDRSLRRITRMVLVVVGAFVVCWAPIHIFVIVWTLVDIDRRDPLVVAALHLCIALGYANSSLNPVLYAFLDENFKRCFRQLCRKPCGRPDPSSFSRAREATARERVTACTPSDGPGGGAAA
T1 sequence (P10635 whole entry): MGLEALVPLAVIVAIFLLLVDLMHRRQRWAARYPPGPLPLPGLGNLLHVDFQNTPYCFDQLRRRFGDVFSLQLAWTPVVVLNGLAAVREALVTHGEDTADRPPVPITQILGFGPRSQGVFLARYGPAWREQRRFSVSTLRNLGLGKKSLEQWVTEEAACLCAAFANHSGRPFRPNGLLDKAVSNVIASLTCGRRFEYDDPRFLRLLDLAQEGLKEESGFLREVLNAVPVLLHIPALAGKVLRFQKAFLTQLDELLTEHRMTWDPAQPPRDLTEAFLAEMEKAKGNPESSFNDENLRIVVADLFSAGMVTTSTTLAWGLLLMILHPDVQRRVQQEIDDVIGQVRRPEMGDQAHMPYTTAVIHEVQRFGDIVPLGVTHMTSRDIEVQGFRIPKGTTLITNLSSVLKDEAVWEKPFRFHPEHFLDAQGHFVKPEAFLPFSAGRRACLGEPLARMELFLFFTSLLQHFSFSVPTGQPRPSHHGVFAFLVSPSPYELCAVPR
T2 sequence (P41145 whole entry): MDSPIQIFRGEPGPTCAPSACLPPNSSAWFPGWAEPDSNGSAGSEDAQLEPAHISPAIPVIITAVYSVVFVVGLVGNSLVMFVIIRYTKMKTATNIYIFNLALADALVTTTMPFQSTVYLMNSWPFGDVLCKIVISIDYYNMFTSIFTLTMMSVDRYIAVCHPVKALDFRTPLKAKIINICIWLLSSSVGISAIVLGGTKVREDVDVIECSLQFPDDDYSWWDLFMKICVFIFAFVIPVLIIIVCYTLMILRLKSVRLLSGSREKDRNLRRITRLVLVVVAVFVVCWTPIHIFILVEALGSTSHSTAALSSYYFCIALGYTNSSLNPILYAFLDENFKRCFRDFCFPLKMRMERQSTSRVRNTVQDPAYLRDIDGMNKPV
Sequence of CAAX prenyl protease 2 (Homo sapiens, UniProt Q9Y256) (Q9Y256 whole entry): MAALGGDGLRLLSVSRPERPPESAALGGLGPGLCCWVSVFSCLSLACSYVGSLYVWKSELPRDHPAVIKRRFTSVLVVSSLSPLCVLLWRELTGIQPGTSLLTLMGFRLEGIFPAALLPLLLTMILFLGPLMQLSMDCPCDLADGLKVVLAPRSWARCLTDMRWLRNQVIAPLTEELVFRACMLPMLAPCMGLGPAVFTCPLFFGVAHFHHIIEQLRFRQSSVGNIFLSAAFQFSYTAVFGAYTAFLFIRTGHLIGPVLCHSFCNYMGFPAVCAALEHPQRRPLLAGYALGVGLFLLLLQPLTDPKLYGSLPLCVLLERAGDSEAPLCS
Sequence of Mu-type opioid receptor (P35372 whole entry): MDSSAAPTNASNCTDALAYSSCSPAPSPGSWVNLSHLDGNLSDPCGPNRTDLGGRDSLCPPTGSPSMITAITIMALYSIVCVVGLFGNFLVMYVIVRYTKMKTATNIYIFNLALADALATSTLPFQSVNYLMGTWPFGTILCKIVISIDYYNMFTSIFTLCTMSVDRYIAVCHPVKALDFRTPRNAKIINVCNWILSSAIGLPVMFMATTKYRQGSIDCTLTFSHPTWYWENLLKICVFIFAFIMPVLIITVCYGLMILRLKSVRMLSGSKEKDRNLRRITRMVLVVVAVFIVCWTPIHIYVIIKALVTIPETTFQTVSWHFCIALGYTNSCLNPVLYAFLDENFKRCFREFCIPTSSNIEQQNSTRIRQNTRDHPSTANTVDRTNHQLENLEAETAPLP
Sequence of Trypsin (P00761 whole entry): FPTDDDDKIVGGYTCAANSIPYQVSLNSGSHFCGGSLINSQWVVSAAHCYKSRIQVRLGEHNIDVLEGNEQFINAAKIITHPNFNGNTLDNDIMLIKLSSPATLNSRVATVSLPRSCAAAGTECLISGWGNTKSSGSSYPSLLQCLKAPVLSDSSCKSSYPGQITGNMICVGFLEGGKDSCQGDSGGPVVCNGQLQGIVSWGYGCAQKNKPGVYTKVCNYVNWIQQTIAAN
Sequence of Beta-galactosidase (Q8VNN2 whole entry): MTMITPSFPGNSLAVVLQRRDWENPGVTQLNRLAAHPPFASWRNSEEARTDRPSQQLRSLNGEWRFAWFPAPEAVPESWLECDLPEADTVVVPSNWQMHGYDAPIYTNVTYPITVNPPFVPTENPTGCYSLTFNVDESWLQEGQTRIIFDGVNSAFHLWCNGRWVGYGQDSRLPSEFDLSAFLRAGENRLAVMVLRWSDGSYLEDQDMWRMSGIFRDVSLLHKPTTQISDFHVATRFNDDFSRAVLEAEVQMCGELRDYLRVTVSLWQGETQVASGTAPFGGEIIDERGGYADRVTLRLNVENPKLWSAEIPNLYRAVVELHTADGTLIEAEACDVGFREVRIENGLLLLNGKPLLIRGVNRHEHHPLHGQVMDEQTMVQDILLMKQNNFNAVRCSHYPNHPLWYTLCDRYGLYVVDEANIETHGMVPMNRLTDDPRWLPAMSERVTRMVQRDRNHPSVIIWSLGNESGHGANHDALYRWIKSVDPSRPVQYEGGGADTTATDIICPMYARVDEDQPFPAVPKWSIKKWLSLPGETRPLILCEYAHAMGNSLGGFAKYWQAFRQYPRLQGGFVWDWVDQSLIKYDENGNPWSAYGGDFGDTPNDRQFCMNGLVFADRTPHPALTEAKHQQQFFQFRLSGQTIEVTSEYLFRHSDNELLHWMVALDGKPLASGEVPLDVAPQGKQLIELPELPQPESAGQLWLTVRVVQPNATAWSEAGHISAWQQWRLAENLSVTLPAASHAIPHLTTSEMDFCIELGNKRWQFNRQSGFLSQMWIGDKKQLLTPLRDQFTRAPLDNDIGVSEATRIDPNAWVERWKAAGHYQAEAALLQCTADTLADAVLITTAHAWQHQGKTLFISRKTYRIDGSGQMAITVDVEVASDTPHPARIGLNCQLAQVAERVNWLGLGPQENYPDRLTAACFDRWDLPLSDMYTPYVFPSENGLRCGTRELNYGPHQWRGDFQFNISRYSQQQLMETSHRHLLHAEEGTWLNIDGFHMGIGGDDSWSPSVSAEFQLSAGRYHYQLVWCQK

With CCN1CCN(c2cc(=O)n(-c3cc(Cl)ccc3C)c(=O)[nH]2)CC1 the AC50 (Cytochrome P450 2D6 [1]) was “inconclusive”.
With CC1=C([N+](=O)[O-])C(c2cccc(Br)c2)C2=C(O)c3ccccc3C2=N1 (stereo not drawn) the EC50 (HEK293 [2]) was > 59.6 µM (inactive) and the EC50 (HEK293 [3]) was > 59.6 µM (inactive).
In the case of COc1ccc(-c2csc(N3C(=N)SCC3=O)n2)cc1, the AC50 (Cytochrome P450 2D6 [4]) is reported as 11.2 µM (inconclusive), the IC50 [5] is reported as 12.8 µM (active) and the EC50 (Mu-type opioid receptor) is reported as > 32 µM (inactive). The EC50 (Beta-galactosidase) was > 31.5 µM (inactive), the IC50 [6] was > 32 µM (inactive) and the IC50 [7] was > 32 µM. For the same compound, the EC50 [8] was > 32 µM (inactive).
For CC(C)(C)C(=O)C[n+]1ccc(C(N)=O)cc1, the AC50 (CAAX prenyl protease 2 [9]) was 12.5 µM (active), the AC50 (CAAX prenyl protease 2 [10]) was 15.1 µM (active) and the AC50 (Trypsin) was 13.4 µM (active).
In the case of Cc1ccccc1C(=O)NNC(=S)NC(=O)c1ccc(Cl)cc1Cl, the EC50 [11] is reported as 1.33 µM (active), the EC50 [12] is reported as > 160 µM (inactive) and the EC50 [13] is reported as 1.75 µM (active).
For CCn1c(SCC(=O)c2cc(C)n(CC3CCCO3)c2C)nc2ccccc21 (stereo not drawn), the EC50 [11] was 9.44 µM (active) and the EC50 [14] was 5.31 µM (active).
